Measured values as given in ChEMBL document CHEMBL3286224, “Optimization of ketone-based P2Y(12) receptor antagonists as antithrombotic agents: pharmacodynamics and receptor kinetics considerations” (Bioorg Med Chem Lett, 2014).
In brackets after ≈: the same amount, converted by molar mass. Activity calls are given as the source filed them. No cut-off for these calls is given here.

Experiments:
physchem = settings: buffer, pH 7.4
Description: Lipophilicity, log D of the compound at pH 7.4 by HPLC analysis

P2Y purinoceptor 12 [1] = target: T1, P2Y purinoceptor 12 (Homo sapiens, UniProt Q9H244)
Description: Antagonist activity at P2Y12 receptor (unknown origin) assessed as inhibition of ADP-induced [35S]GTPgammaS binding after 45 mins by scintillation counting analysis

[2] = Apparent permeability from apical to basolateral side in human Caco2 cells at 10 uM at pH 6.5 after 60 mins by LC-MS analysis; format: ADME, cell-based; settings: Caco-2, pH 6.5
in vitro [3] = settings: human, Caco-2, pH 7.4
Description: (§1) Apparent permeability from apical to basolateral side in human Caco2 cells at 10 uM at pH 7.4 after 60 mins by LC-MS analysis

[4] = Aqueous solubility of the compound; format: physicochemical; settings: buffer
in vitro [5] = settings: human, liver microsomes
Description: Half life in human liver microsomes at 1 mg/ml

P2Y purinoceptor 12 [6] = target: T1, P2Y purinoceptor 12; assay: Displacement of [125I]AZ11931285 from human P2Y12 receptor expressed in CHOK1 cell membrane after 10 seconds; design: species or system CHO-K1
[7] = Half life in Beagle dog at 1 umol/kg, iv; format: ADME, organism-based, Canis lupus familiaris; settings: in vivo
P2Y purinoceptor 12 [8] = target: T1, P2Y purinoceptor 12; assay: Displacement of [125I]AZ11931285 from human P2Y12 receptor expressed in CHOK1 cell membrane after 60 mins; design: species or system CHO-K1
Canis familiaris [9] = species: Canis familiaris; assay: Antithrombotic activity in dog Folt's model of arterial thrombosis assessed as inhibition of platelet aggregation; format: functional, Canis lupus familiaris
[10] = target: Platelet-activating factor receptor (Homo sapiens) (UniProt P25105); assay: Binding affinity to PAF receptor (unknown origin) at 10 uM
[11] = AUC in Beagle dog at 1 umol/kg, iv; format: ADME, organism-based, Canis lupus familiaris; settings: plasma
Caco-2 = settings: human, caco-2, pH 7.4, 1 h, 10 µM
Description: as §1

[12] = target: T2, Thromboxane A2 receptor (Homo sapiens) (UniProt P21731); assay: Binding affinity to thromboxane A2 receptor (unknown origin) at 10 uM
T2 sequence (whole entry): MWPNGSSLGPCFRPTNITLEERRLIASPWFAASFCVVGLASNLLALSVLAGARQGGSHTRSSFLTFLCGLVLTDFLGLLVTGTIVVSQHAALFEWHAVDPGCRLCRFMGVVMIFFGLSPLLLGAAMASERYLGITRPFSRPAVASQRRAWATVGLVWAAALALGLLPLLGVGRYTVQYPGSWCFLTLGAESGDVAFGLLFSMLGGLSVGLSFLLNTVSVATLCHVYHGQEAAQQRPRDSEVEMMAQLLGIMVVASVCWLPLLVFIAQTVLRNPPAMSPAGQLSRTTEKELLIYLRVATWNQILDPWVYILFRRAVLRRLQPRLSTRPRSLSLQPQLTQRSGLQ

P2Y purinoceptor 12 [13] = target: T1, P2Y purinoceptor 12; assay: Displacement of [125I]AZ11931285 from human P2Y12 receptor expressed in CHOK1 cell membrane after 30 seconds; design: species or system CHO-K1
Canis familiaris [14] = assay: Toxicity in dog Folt's model of arterial thrombosis assessed as prolongation of bleeding time at 0.001 to 0.1 umol/kg/min; format: organism-based, Canis lupus familiaris; settings: in vivo, iv
P2Y purinoceptor 12 [15] = target: T1, P2Y purinoceptor 12; assay: Displacement of [125I]AZ11931285 from human P2Y12 receptor expressed in CHOK1 cell membrane after 60 seconds; design: species or system CHO-K1
Canis familiaris [16] = assay: Antithrombotic activity in conscious dog assessed as inhibition of platelet aggregation administered via infusion; format: functional, Canis lupus familiaris
Canis familiaris [17] = assay: Toxicity in conscious dog assessed as prolongation of bleeding time at 0.02 to 8700 nmol/kg/min administered via infusion relative to control; format: organism-based, Canis lupus familiaris; settings: in vivo, iv
[18] = target: P2Y purinoceptor 1 (Homo sapiens) (UniProt P47900); assay: Binding affinity to P2Y1 receptor (unknown origin) at 10 uM
Canis familiaris [19] = assay: Toxicity in conscious dog assessed as prolongation of bleeding time at 1.6 umol/kg/min administered via infusion relative to control; format: organism-based, Canis lupus familiaris; settings: in vivo, iv
Plasma = assay: Fraction unbound in Beagle dog plasma at 37 degC after 18 hrs by equilibrium dialysis technique; format: ADME, cell-free, Canis lupus familiaris
Canis familiaris [20] = assay: Toxicity in dog Folt's model of arterial thrombosis assessed as prolongation of bleeding time at 0.015 umol/kg/min; format: organism-based, Canis lupus familiaris; settings: in vivo, iv

T1 sequence (Q9H244 whole entry): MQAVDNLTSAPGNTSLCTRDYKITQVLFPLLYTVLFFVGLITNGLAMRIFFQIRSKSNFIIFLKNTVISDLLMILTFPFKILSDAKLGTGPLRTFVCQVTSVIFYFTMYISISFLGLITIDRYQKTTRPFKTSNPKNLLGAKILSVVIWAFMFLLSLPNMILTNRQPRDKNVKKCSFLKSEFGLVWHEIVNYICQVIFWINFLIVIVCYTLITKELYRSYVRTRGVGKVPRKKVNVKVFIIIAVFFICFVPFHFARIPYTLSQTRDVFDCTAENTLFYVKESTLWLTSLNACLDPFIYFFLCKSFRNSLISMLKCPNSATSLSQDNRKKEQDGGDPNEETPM
Chain of Platelet-activating factor receptor (Homo sapiens) (P25105 whole entry): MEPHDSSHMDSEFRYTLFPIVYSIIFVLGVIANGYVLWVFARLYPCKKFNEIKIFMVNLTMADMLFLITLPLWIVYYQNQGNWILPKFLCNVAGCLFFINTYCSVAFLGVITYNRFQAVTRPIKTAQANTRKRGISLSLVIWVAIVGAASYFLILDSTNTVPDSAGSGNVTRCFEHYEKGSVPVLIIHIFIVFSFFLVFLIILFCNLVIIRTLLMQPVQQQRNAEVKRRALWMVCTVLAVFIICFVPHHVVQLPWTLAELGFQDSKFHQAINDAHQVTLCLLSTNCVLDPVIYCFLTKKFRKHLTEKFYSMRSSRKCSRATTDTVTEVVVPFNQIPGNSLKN
Chain of P2Y purinoceptor 1 (Homo sapiens) (P47900 whole entry, the tested form may be a part): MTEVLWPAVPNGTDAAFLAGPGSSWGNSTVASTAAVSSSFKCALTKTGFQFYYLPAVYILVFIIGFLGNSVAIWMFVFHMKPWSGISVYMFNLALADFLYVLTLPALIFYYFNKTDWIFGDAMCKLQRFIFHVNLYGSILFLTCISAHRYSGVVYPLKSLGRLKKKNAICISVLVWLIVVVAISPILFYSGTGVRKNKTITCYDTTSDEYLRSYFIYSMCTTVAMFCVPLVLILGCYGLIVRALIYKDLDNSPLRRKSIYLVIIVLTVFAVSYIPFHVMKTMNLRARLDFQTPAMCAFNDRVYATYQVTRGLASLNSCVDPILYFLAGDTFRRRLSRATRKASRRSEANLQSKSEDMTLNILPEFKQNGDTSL

Compound	logD (physchem)	IC50 (P2Y purinoceptor 12 [1])	Papp A→B at 1 h, 10 µM [2]	Papp A→B at 1 h, 10 µM (in vitro [3])	solubility [4]	half-life (in vitro [5])	further results
CCCC(=O)c1cc(C#N)c(N2CCC(C(=O)NS(=O)(=O)Cc3ccccc3Cl)CC2)nc1C	3.1	270 nM	0.4 ×10⁻⁶ cm/s		> 100 µM	> 1.92 h	
CCCC(=O)c1cc(C#N)c(N2CCC(C(=O)NS(=O)(=O)C3(c4ccccc4)CC3)CC2)nc1C	3.9	160 nM	5.2 ×10⁻⁶ cm/s		> 100 µM	> 1.92 h	
CCCC(=O)c1cc(C#N)c(N2CCC(C(=O)NS(=O)(=O)Cc3ccccc3)CC2)nc1CCC	3.7	270 nM		1.2 ×10⁻⁶ cm/s			
CCCC(=O)c1cc(C#N)c(N2CCC(C(=O)NS(=O)(=O)C3(c4ccccc4)CC3)CC2)nc1SC		19 nM		2 ×10⁻⁶ cm/s	78 µM (≈ 41.1 µg/mL)	> 1.92 h	fold change (FC) (Canis familiaris [19]): 6.7; Fu (Plasma): 0.41%; IC50 (P2Y purinoceptor 12 [6]): 126 nM; half-life [7]: 5.2 h; IC50 (P2Y purinoceptor 12 [8]): 4 nM; ID80 (Canis familiaris [9]): 0.005 µmol/kg/min; Activity [10]: inactive; AUC [11]: 6.7 µM·h; Activity [12]: inactive; IC50 (P2Y purinoceptor 12 [13]): 41 nM; IC50 (P2Y purinoceptor 12 [15]): 23 nM; ID80 (Canis familiaris [16]): 0.052 µmol/kg/min; inhibition (Canis familiaris [16]; Canis lupus familiaris): Dose-dependent effect; Activity [18]: inactive; Activity (Canis familiaris [20]): Toxic
CCCC(=O)c1cc(C#N)c(N2CCC(C(=O)NS(=O)(=O)Cc3ccc(C)c(F)c3)CC2)nc1C	3.4	130 nM	0.7 ×10⁻⁶ cm/s		> 100 µM	> 1.92 h	
CCCC(=O)c1cc(C#N)c(N2CCC(C(=O)NS(=O)(=O)Cc3ccc(F)cc3F)CC2)nc1C	3	42 nM	0.3 ×10⁻⁶ cm/s		> 100 µM	> 1.92 h	
CCCC(=O)c1cc(C#N)c(N2CCC(C(=O)NS(=O)(=O)C(C)c3ccccc3)CC2)nc1C (racemic)	3.3	190 nM	1 ×10⁻⁶ cm/s		> 100 µM	> 1.92 h	
CCCC(=O)c1cc(C#N)c(N2CCC(C(=O)NS(=O)(=O)Cc3ccc(Cl)cc3)CC2)nc1C	3.4	57 nM	0.4 ×10⁻⁶ cm/s		> 100 µM	> 1.92 h	
CCCC(=O)c1cc(C#N)c(N2CCC(C(=O)NS(=O)(=O)Cc3ccc(C)cc3)CC2)nc1C	3.4	59 nM	1.4 ×10⁻⁶ cm/s		> 100 µM	> 1.92 h	

More lines, main results first:

logD (physchem)	IC50 (P2Y purinoceptor 12 [1])	Papp A→B at 1 h, 10 µM [2]	Papp A→B at 1 h, 10 µM (in vitro [3])	solubility [4]	half-life (in vitro [5])	Compound	further results
2.8	100 nM	0.3 ×10⁻⁶ cm/s	0.32 ×10⁻⁶ cm/s	> 100 µM	> 1.92 h	CCCC(=O)c1cc(C#N)c(N2CCC(C(=O)NS(=O)(=O)Cc3ccccc3)CC2)nc1C	
2.8					1 h	CCOC(=O)c1cc(C#N)c(N2CCC(C(=O)NS(=O)(=O)Cc3ccccc3)CC2)nc1C	IC50 (P2Y purinoceptor 12 [6]): 44 nM; half-life [7]: 5.1 h; IC50 (P2Y purinoceptor 12 [8]): 9 nM; ID80 (Canis familiaris [9]): 0.009 µmol/kg/min; Activity [10]: inactive; AUC [11]: 5.9 µM·h; Papp (Caco-2): 1 ×10⁻⁶ cm/s; Activity [12]: inactive; IC50 (P2Y purinoceptor 12 [13]): 22 nM; Activity (Canis familiaris [14]): Non-toxic; IC50 (P2Y purinoceptor 12 [15]): 14 nM; ID80 (Canis familiaris [16]): 0.44 µmol/kg/min; Activity (Canis familiaris [17]): Non-toxic; Activity [18]: inactive
3.1	17 nM		0.3 ×10⁻⁶ cm/s	> 100 µM	> 1.92 h	CCCC(=O)c1cc(C#N)c(N2CCC(C(=O)NS(=O)(=O)Cc3ccccc3)CC2)nc1SC	
3						CCCC(=O)c1cc(C#N)c(N2CCC(C(=O)NS(=O)(=O)Cc3ccccc3)CC2)nc1OC	
2.7	93 nM		< 0.1 ×10⁻⁶ cm/s			CCCC(=O)c1cc(C#N)c(N2CCC(C(=O)NS(=O)(=O)Cc3ccccc3)CC2)nc1CF	
